Assay results published in patent publication US11331327B2, “Antibacterial use of halogenated salicylanilides” (UNION therapeutics A/S, priority 2014, dated 2022).
Values after ≈ are worked out from the molar mass of the structure shown.

System: S. aureus clinical isolates and S. aureus ATCC 29213
Assay: MIC assay according to CLSI criteria, Example 2, S. aureus strains
Assay type: cell-based, Staphylococcus aureus
Settings: Staphylococcus aureus
In short: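 S. aureus grown aerobically in cation-adjusted Mueller Hinton broth at 37° C. Exponential-phase cultures inoculated at about 5×10^5 cells per well, then incubated 18 hours at 37° C.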

Structure (SMILES): C=C[C@]1(C)C[C@@H](OC(=O)CS[C@@H]2C[C@H]3CC[C@@H](C2)N3C)[C@]2(C)[C@H](C)CC[C@]3(CCC(=O)[C@H]32)[C@@H](C)[C@@H]1O [Retapamulin]
- MIC (ATCC29213, strain 9-1862936): 0.03 µg/mL (≈ 0.0579 µM)
- MIC (ATCC29213, strain 9-2625962): 0.03 µg/mL (≈ 0.0579 µM)
- MIC (ATCC29213, strain 9-2642158): 0.06 µg/mL (≈ 0.116 µM)
- MIC (ATCC29213, strain 9-2955245): 0.06 µg/mL (≈ 0.116 µM)
- MIC (ATCC29213, strain 9-26422166): 0.03 µg/mL (≈ 0.0579 µM)
- MIC (ATCC29213, strain 000040C): 0.03 µg/mL (≈ 0.0579 µM)
- MIC (ATCC29213, strain 000041C): 0.03 µg/mL (≈ 0.0579 µM)
- MIC (ATCC29213, strain 000274T): 0.06 µg/mL (≈ 0.116 µM)
- MIC (ATCC29213, strain 114660U): 0.06 µg/mL (≈ 0.116 µM)
- MIC (ATCC29213, strain 115015T): 0.06 µg/mL (≈ 0.116 µM)
- MIC (ATCC29213, strain 115242C): 0.03 µg/mL (≈ 0.0579 µM)
- MIC (ATCC29213, strain 115263C): 0.03 µg/mL (≈ 0.0579 µM)
- MIC (ATCC29213, strain 115268C): 0.03 µg/mL (≈ 0.0579 µM)
- MIC (ATCC29213, strain 115273C): 0.03 µg/mL (≈ 0.0579 µM)
- MIC (ATCC29213, strain 115295C): 0.03 µg/mL (≈ 0.0579 µM)
- MIC (ATCC29213, strain 115303C): 0.03 µg/mL (≈ 0.0579 µM)
- MIC (ATCC29213, strain 115370U): 0.06 µg/mL (≈ 0.116 µM)
- MIC (ATCC29213, strain 115427C): 0.03 µg/mL (≈ 0.0579 µM)
- MIC (ATCC29213, strain 115445C): 0.03 µg/mL (≈ 0.0579 µM)
- MIC (ATCC29213, strain 115561C): 0.03 µg/mL (≈ 0.0579 µM)
- MIC (ATCC29213, strain 115584D): 0.06 µg/mL (≈ 0.116 µM)
- MIC (ATCC29213, strain 115628T): 0.03 µg/mL (≈ 0.0579 µM)
- MIC (ATCC29213, strain 115690C): 0.25 µg/mL (≈ 0.483 µM)
- MIC (ATCC29213, strain 115691T): 0.03 µg/mL (≈ 0.0579 µM)
- MIC (ATCC29213, strain 115740E): 0.06 µg/mL (≈ 0.116 µM)
- MIC (ATCC29213, strain 115810E): 0.06 µg/mL (≈ 0.116 µM)
- MIC (ATCC29213, strain 115903T): 0.03 µg/mL (≈ 0.0579 µM)
- MIC (ATCC29213, strain 116122T): 0.03 µg/mL (≈ 0.0579 µM)
- MIC (ATCC29213, strain ATCC 29213): 0.03 µg/mL (≈ 0.0579 µM)
- MIC (ATCC29213, strain E5-1029252): 0.03 µg/mL (≈ 0.0579 µM)
- MIC (ATCC29213, strain E5-1029558): 0.03 µg/mL (≈ 0.0579 µM)
- MIC (ATCC29213, strain E5-1030440): 0.06 µg/mL (≈ 0.116 µM)
- MIC (ATCC29213, strain E5-1030469): 0.03 µg/mL (≈ 0.0579 µM)
- MIC (ATCC29213, strain E5-1030472): 0.06 µg/mL (≈ 0.116 µM)
- MIC (ATCC29213, strain E5-1030482): 0.02 µg/mL (≈ 0.0386 µM)
- MIC (ATCC29213, strain E5-1033076 (first line, r202)): 0.03 µg/mL (≈ 0.0579 µM)
- MIC (ATCC29213, strain E5-1033076 (second line, r203)): 0.03 µg/mL (≈ 0.0579 µM)
- MIC (ATCC29213, strain E5-1033088): 0.03 µg/mL (≈ 0.0579 µM)
- MIC (ATCC29213, strain E5-1033091): 0.02 µg/mL (≈ 0.0386 µM)
- MIC (ATCC29213, strain E5-1035277): 0.03 µg/mL (≈ 0.0579 µM)
- MIC (ATCC29213, strain E5-1035284): 0.03 µg/mL (≈ 0.0579 µM)
- MIC (ATCC29213, strain E5-1035775): 0.06 µg/mL (≈ 0.116 µM)
- MIC (ATCC29213, strain E5-1035779): 0.03 µg/mL (≈ 0.0579 µM)
- MIC (ATCC29213, strain E5-1037958): 0.06 µg/mL (≈ 0.116 µM)
- MIC (ATCC29213, strain E5-1037971): 0.03 µg/mL (≈ 0.0579 µM)
- MIC (ATCC29213, strain E5-1038279): 0.03 µg/mL (≈ 0.0579 µM)
- MIC (ATCC29213, strain E5-1038286): 0.06 µg/mL (≈ 0.116 µM)
- MIC (ATCC29213, strain E5-1038294): 0.03 µg/mL (≈ 0.0579 µM)
- MIC (ATCC29213, strain E5-1039684): 0.06 µg/mL (≈ 0.116 µM)
- MIC (ATCC29213, strain E5-1039697): 0.06 µg/mL (≈ 0.116 µM)
- MIC (ATCC29213, strain E5-1041977): 0.03 µg/mL (≈ 0.0579 µM)
- MIC (ATCC29213, strain E5-1041979): 0.03 µg/mL (≈ 0.0579 µM)
- MIC (ATCC29213, strain E5-1041980): 0.03 µg/mL (≈ 0.0579 µM)
- MIC (ATCC29213, strain E5-1041987): 0.03 µg/mL (≈ 0.0579 µM)
- MIC (ATCC29213, strain E5-1043184): 0.03 µg/mL (≈ 0.0579 µM)
- MIC (ATCC29213, strain E5-1043668): 0.06 µg/mL (≈ 0.116 µM)
- MIC (ATCC29213, strain E5-1045179): 0.06 µg/mL (≈ 0.116 µM)
- MIC (ATCC29213, strain E5-1046019): 0.03 µg/mL (≈ 0.0579 µM)
- MIC (ATCC29213, strain E5-1046020): 0.06 µg/mL (≈ 0.116 µM)
- MIC (ATCC29213, strain E5-1046039): 0.06 µg/mL (≈ 0.116 µM)
- MIC (ATCC29213, strain E5-1046070): 0.03 µg/mL (≈ 0.0579 µM)
- MIC (ATCC29213, strain E5-1046074): 0.06 µg/mL (≈ 0.116 µM)
- MIC (ATCC29213, strain E5-1046085): 0.06 µg/mL (≈ 0.116 µM)
- MIC (ATCC29213, strain E5-1046096): 0.06 µg/mL (≈ 0.116 µM)
- MIC (ATCC29213, strain E5-1046296): 0.03 µg/mL (≈ 0.0579 µM)
- MIC (ATCC29213, strain E5-1046297): 0.06 µg/mL (≈ 0.116 µM)
- MIC (ATCC29213, strain E5-1046298): 0.03 µg/mL (≈ 0.0579 µM)
- MIC (ATCC29213, strain E5-1046723): 0.06 µg/mL (≈ 0.116 µM)
- MIC (ATCC29213, strain E5-1047585): 0.03 µg/mL (≈ 0.0579 µM)
- MIC (ATCC29213, strain E5-1047606): 0.03 µg/mL (≈ 0.0579 µM)
- MIC (ATCC29213, strain E5-1047924): 0.03 µg/mL (≈ 0.0579 µM)
- MIC (ATCC29213, strain E5-1048204): 0.03 µg/mL (≈ 0.0579 µM)
- MIC (ATCC29213, strain E5-1048428): 0.06 µg/mL (≈ 0.116 µM)
- MIC (ATCC29213, strain E5-1048654): 0.06 µg/mL (≈ 0.116 µM)
- MIC (ATCC29213, strain E5-1048670): 0.06 µg/mL (≈ 0.116 µM)
- MIC (ATCC29213, strain EEFIC 01): 0.03 µg/mL (≈ 0.0579 µM)
- MIC (ATCC29213, strain EEFIC 02): 0.03 µg/mL (≈ 0.0579 µM)
- MIC (ATCC29213, strain K000772): 0.06 µg/mL (≈ 0.116 µM)
- MIC (ATCC29213, strain K000796): 0.03 µg/mL (≈ 0.0579 µM)
- MIC (ATCC29213, strain K000863): 0.03 µg/mL (≈ 0.0579 µM)
- MIC (ATCC29213, strain K000864): 0.03 µg/mL (≈ 0.0579 µM)
- MIC (ATCC29213, strain K000866): 0.03 µg/mL (≈ 0.0579 µM)
- MIC (ATCC29213, strain K115498): 0.03 µg/mL (≈ 0.0579 µM)
- MIC (ATCC29213, strain K115688): 0.03 µg/mL (≈ 0.0579 µM)
- MIC (ATCC29213, strain K115689): 0.03 µg/mL (≈ 0.0579 µM)
- MIC (ATCC29213, strain R000019): 0.06 µg/mL (≈ 0.116 µM)
- MIC (ATCC29213, strain R000020): 0.03 µg/mL (≈ 0.0579 µM)
- MIC (ATCC29213, strain R000024): 0.06 µg/mL (≈ 0.116 µM)
- MIC (ATCC29213, strain U115579): 0.06 µg/mL (≈ 0.116 µM)
- MIC (ATCC 29213 / MRSA, strain MRSA 01): 0.06 µg/mL (≈ 0.116 µM)
- MIC (ATCC 29213 / MRSA, strain MRSA 02): 0.06 µg/mL (≈ 0.116 µM)
- MIC (ATCC 29213 / MRSA, strain MRSA 03): 0.03 µg/mL (≈ 0.0579 µM)
- MIC (ATCC 29213 / MRSA, strain MRSA 04): 0.06 µg/mL (≈ 0.116 µM)
- MIC (ATCC 29213 / MRSA, strain MRSA 05): 0.03 µg/mL (≈ 0.0579 µM)
- MIC (ATCC 29213 / MRSA, strain MRSA 06): 0.03 µg/mL (≈ 0.0579 µM)
- MIC (ATCC 29213 / MRSA, strain MRSA 07): 0.06 µg/mL (≈ 0.116 µM)
- MIC (ATCC 29213 / MRSA, strain MRSA 08): 0.03 µg/mL (≈ 0.0579 µM)
- MIC (ATCC 29213 / MRSA, strain MRSA 09): 0.06 µg/mL (≈ 0.116 µM)
- MIC (ATCC 29213 / MRSA, strain MRSA 10): 0.06 µg/mL (≈ 0.116 µM)
- MIC (ATCC 29213 / MRSA, strain MRSA 11): 0.06 µg/mL (≈ 0.116 µM)
- MIC (ATCC 29213 / MRSA, strain MRSA 12): 0.03 µg/mL (≈ 0.0579 µM)
- MIC (ATCC 29213 / MRSA, strain MRSA 13): 0.06 µg/mL (≈ 0.116 µM)
- MIC (ATCC 29213 / MRSA, strain MRSA 14): 0.03 µg/mL (≈ 0.0579 µM)
